Assay results published in patent US6946137B2, “Methods for the controlled delivery of pharmacologically active compounds” (IDEXX Laboratories, Inc., priority 2001, dated 2005).
Structures can show the parent of a compound that is named as a salt. Where two headings read alike, the source gives them in different places.

Columns and labels:
[1] = in vitro release from dialysis bag into saline; assay type: physicochemical
[2] = stated as background, no test described, cited from earlier work
cats = conditions: previous data; cited from earlier work

Compound	solubility in water / aqueous solutions (in words), known forms [2]	further results
CNCCC(Oc1ccc(C(F)(F)F)cc1)c1ccccc1 (centres unmarked) [fluoxetine base formulation, Fluoxetine]	–	time over which the formulation was released in vitro ([1]; 100 mg/ml in 10% propylene glycol in glycerol formal, dialysis technique): about 160 hrs
CN(C)C1C(O)=C(C(N)=O)C(=O)[C@@]2(O)C(O)=C3C(=O)c4c(O)cccc4[C@@](C)(O)C3C(O)C12 (some centres unmarked) [hydrochloride salt of oxytetracycline, Oxytetracycline]	readily soluble in water	–
COCCc1ccc(OCC(O)CNC(C)C)cc1 (centres unmarked) [metoprolol base, Metoprolol]	–	in vitro release rate (in words) ([1]; dialysis bag into saline): diffused off rapidly
COCCc1ccc(OCC(O)CNC(C)C)cc1 (centres unmarked) [metoprolol succinate, Metoprolol]	highly soluble in water	–
CC[C@H]1OC(=O)C[C@@H](O)[C@H](C)[C@@H](OC2OC(C)C(O)C(N(C)C)C2O)[C@@H](CCN2C[C@@H](C)C[C@H](C)C2)C[C@@H](C)C(=O)/C=C/C(C)=C/[C@@H]1COC1OC(C)C(O)C(OC)C1OC (some centres unmarked) [phosphate salt of tilmicosin, Tilmicosin]	–	solubility in water / aqueous solutions (in words), known forms ([2]; listed as tilmicosin phosphate salt): highly soluble; dosage that could be fatal to cats (cats): 25 mg/kg
CC[C@H]1OC(=O)C[C@@H](O)[C@H](C)[C@@H](OC2OC(C)C(O)C(N(C)C)C2O)[C@@H](CCN2C[C@@H](C)C[C@H](C)C2)C[C@@H](C)C(=O)/C=C/C(C)=C/[C@@H]1COC1OC(C)C(O)C(OC)C1OC (some centres unmarked) [tilmicosin basic form, Tilmicosin]	moderately soluble	–
CC[C@H]1OC(=O)C[C@@H](O)[C@H](C)[C@@H](OC2OC(C)C(O)C(N(C)C)C2O)[C@@H](CCN2C[C@@H](C)C[C@H](C)C2)C[C@@H](C)C(=O)/C=C/C(C)=C/[C@@H]1COC1OC(C)C(O)C(OC)C1OC (some centres unmarked) [tilmicosin chloride salt, Tilmicosin]	highly soluble	–
